MIC data for 15 compounds are collected here from DBAASP.

By MIC is commonly meant the least concentration at which growth counts as inhibited. The low end stands for greater potency, the high end for weaker potency.

Among the test systems are Shigella dysenteriae; Proteus mirabilis; Micrococcus luteus; Bacillus subtilis; Salmonella typhimurium; Staphylococcus aureus; Escherichia coli; Pseudomonas aeruginosa; Klebsiella pneumoniae; Saccharomyces cerevisiae; Escherichia coli JW0013.
Common to all, as to experiment: ≥ marks a high value that may be exact or a test limit, other limits are often not marked, values filed in µg/mL are converted to µM
The subject of assay [1] is Escherichia coli NCTC 10418.
Assay [2] deals with Micrococcus luteus ATCC 4698.
Assay [3] concerns Staphylococcus aureus USA 100.
The subject of assay [4] is Escherichia coli DH5alpha.
Assay [5] has as its system Staphylococcus epidermidis.
In assay [6] the test system is Staphylococcus epidermidis ATCC 12228.
For assay [7], the system named is Staphylococcus aureus ATCC 6538.
The test system of assay [8] is Bacillus subtilis ATCC 23857.
The test system of assay [9] is Escherichia coli ATCC 25922.
Assay [10] deals with Klebsiella pneumoniae ATCC 700603.
Assay [11] concerns Staphylococcus aureus ATCC 25923.
Assay [12] relates to Pseudomonas aeruginosa ATCC 15692.
Assay [13] concerns Pseudomonas aeruginosa ATCC 9027.
The subject of assay [14] is Candida albicans ATCC 90028.
Assay [15] deals with Staphylococcus aureus USA 300.

The structures appear in SMILES notation. In brackets after ≈: the same amount, converted by molar mass.

`CC[C@H](C)[C@H](NC(=O)[C@H](CC(N)=O)NC(=O)[C@@H](NC(=O)[C@H](C)N)C(C)C)C(=O)N1CCC[C@H]1C(=O)N[C@@H](Cc1ccccc1)C(=O)N[C@@H](CCCCN)C(=O)N[C@H](C(=O)N[C@@H](Cc1cnc[nH]1)C(=O)N[C@@H](CC(C)C)C(=O)N[C@@H](CCCN=C(N)N)C(=O)N[C@H]1CSSC[C@@H](C(=O)O)NC(=O)[C@H](Cc2ccccc2)NC(=O)[C@H](C)NC(=O)[C@H](C)NC(=O)[C@H](CCCCN)NC1=O)C(C)C` [AVNIPFKVHLRCKAAFC] returned an MIC in assay [1] of 20 µM (≈ 38.3 µg/mL).
In turn, `NCCCC[C@@H]1NC(=O)[C@H](CCCN=C(N)N)NC(=O)[C@H](CCCCN)NC(=O)[C@H](Cc2c[nH]c3ccccc23)NC(=O)[C@H](CCCCN)NC(=O)[C@H](CCCCN)NC(=O)[C@@H](N)CSSC[C@@H](C(=O)O)NC(=O)[C@H](CCCN=C(N)N)NC1=O` [CKKWKRKRC] registered an MIC in assay [2] of 0.6 µM (≈ 0.74 µg/mL).
In [3], `NC(=O)[C@H](CCCN=C(N)N)NC(=O)[C@H](CCC(=O)O)NC(=O)[C@H](CCCN=C(N)N)NC(=O)[C@@H](N)CCC(=O)O` [ERER] registered an MIC of at least 100 µM.
On to `CC(C)C[C@H](NC(=O)[C@@H](NC(=O)[C@H](CCCCN)NC(=O)[C@H](CO)NC(=O)[C@H](C)NC(=O)[C@@H](NC(=O)[C@H](CCCCN)NC(=O)[C@H](Cc1ccccc1)NC(=O)[C@H](CC(C)C)NC(=O)[C@H](C)NC(=O)CNC(=O)[C@H](CC(C)C)NC(=O)[C@@H](N)Cc1ccccc1)C(C)C)C(C)C)C(=O)O` [FLGALFKVASKVL], for which the MIC in [4] is at least 194 µM; in the assay on Shigella dysenteriae, 18 µM (≈ 25 µg/mL); in the assay with Proteus mirabilis, at least 144 µM; with Micrococcus luteus it was 4.52 µM (≈ 6.3 µg/mL); in the assay on Bacillus subtilis, 8.98 µM (≈ 12.5 µg/mL); in the assay on Salmonella typhimurium, at least 71.8 µM. In addition, the MIC in the assay on Staphylococcus aureus was 2.23 µM (≈ 3.1 µg/mL); with Escherichia coli, 18 µM (≈ 25 µg/mL); in [5], 2.23 µM (≈ 3.1 µg/mL); in assay [2], at least 35.9 µM; against Pseudomonas aeruginosa, 71.8 µM (≈ 100 µg/mL); in assay [6] it was 180 µM (≈ 250 µg/mL). In addition, the MIC in assay [7] was found to be 71.8 µM (≈ 100 µg/mL); in the assay on Klebsiella pneumoniae, 18 µM (≈ 25 µg/mL).
`CC[C@H](C)[C@H](NC(=O)CN)C(=O)N[C@H](C(=O)N[C@@H](C)C(=O)NCC(=O)N[C@H](C(=O)N[C@H](C(=O)N[C@@H](C)C(=O)N[C@@H](CCCCN)C(=O)N[C@H](C(=O)N[C@@H](CCCCN)C(=O)N[C@@H](CCCCN)C(N)=O)[C@@H](C)CC)[C@@H](C)CC)[C@@H](C)CC)[C@@H](C)CC` [GIIAGIIAKIKK]: the MIC in assay [8] was at least 32 µM; in [9], over 128 µM.
As to `CC[C@H](C)[C@H](NC(=O)CN)C(=O)N[C@H](C(=O)N[C@@H](CCCN=C(N)N)C(=O)NCC(=O)N[C@H](C(=O)N[C@H](C(=O)N[C@@H](CCCCN)C(=O)N[C@H](C(=O)N[C@H](C(=O)N[C@@H](CCCCN)C(=O)N[C@@H](CCCN=C(N)N)C(N)=O)[C@@H](C)CC)[C@@H](C)CC)[C@@H](C)CC)[C@@H](C)CC)[C@@H](C)CC` [GIIRGIIKIIKR], the MIC in [8] came to 8 µM (≈ 11 µg/mL); in assay [9], 64 µM (≈ 88.2 µg/mL).
For `CC[C@H](C)[C@H](NC(=O)[C@H](CCCCN)NC(=O)[C@H](CCCCN)NC(=O)[C@H](C)NC(=O)[C@@H](NC(=O)[C@H](C)NC(=O)[C@H](CC(C)C)NC(=O)[C@H](CC(C)C)NC(=O)[C@H](CCCCN)NC(=O)[C@H](CCCCN)NC(=O)[C@H](CC(C)C)NC(=O)[C@H](CC(N)=O)NC(=O)CN)C(C)C)C(=O)N[C@@H](CC(C)C)C(N)=O` [GNLKKLLAVAKKIL], the MIC in assay [10] is 16 µM (≈ 24.1 µg/mL); in [8], 4 µM (≈ 6.03 µg/mL); in assay [11], 16 µM (≈ 24.1 µg/mL); in the assay with Escherichia coli, 4 µM (≈ 6.03 µg/mL).
Take `CC[C@H](C)[C@H](NC(=O)[C@H](CO)NC(=O)[C@H](CO)NC(=O)[C@H](C)NC(=O)[C@H](Cc1c[nH]c2ccccc12)NC(=O)CN)C(=O)NCC(=O)N[C@@H](CO)C(=O)N[C@H](C(=O)N[C@@H](CC(C)C)C(=O)NCC(=O)N[C@@H](CCCCN)C(=O)N[C@@H](Cc1ccccc1)C(=O)N[C@@H](C)C(=O)N[C@@H](CCCCN)C(=O)NCC(=O)NCC(=O)N[C@@H](C)C(=O)N[C@@H](CCC(N)=O)C(=O)N[C@@H](C)C(=O)N[C@@H](Cc1ccccc1)C(=O)N[C@@H](CC(C)C)C(=O)N[C@@H](CCC(N)=O)C(=O)N1CCC[C@H]1C(=O)N[C@@H](CCCCN)C(=O)O)[C@@H](C)CC` [GWASSIGSILGKFAKGGAQAFLQPK]: the MIC against Micrococcus luteus was 0.5 µM (≈ 1.26 µg/mL); in assay [9], 32 µM (≈ 80.6 µg/mL); in assay [11], over 256 µM; in [12], at least 128 µM; with Saccharomyces cerevisiae, at least 64 µM.
For `NCCCC[C@H](NC(=O)[C@H](Cc1c[nH]c2ccccc12)NC(=O)[C@H](CCCCN)NC(=O)[C@H](Cc1c[nH]c2ccccc12)NC(=O)[C@@H](N)CCCCN)C(=O)N[C@@H](Cc1c[nH]c2ccccc12)C(=O)O` [KWKWKW], the MIC in assay [13] is over 100 µM; in assay [3], at least 100 µM; in [14] it was at least 100 µM; in [15] it was at least 100 µM.
In the case of `CC[C@H](C)[C@H](NC(=O)[C@H](CCCCN)NC(=O)[C@H](CCCCN)NC(=O)[C@H](C)NC(=O)[C@H](C)NC(=O)[C@H](C)NC(=O)[C@H](CC(C)C)NC(=O)[C@H](CC(C)C)NC(=O)[C@H](C)NC(=O)[C@H](CCCCN)NC(=O)[C@H](CC(C)C)NC(=O)[C@H](CC(N)=O)NC(=O)[C@@H](N)CC(C)C)C(=O)N[C@@H](CC(C)C)C(N)=O` [LNLKALLAAAKKIL], the MIC in [10] turned out to be 16 µM (≈ 23.7 µg/mL); in assay [8], 8 µM (≈ 11.8 µg/mL); in assay [13], 16 µM (≈ 23.7 µg/mL); in [9] it was 8 µM (≈ 11.8 µg/mL); in [11], 16 µM (≈ 23.7 µg/mL).
On to `CC(C)C[C@H](NC(=O)[C@H](C)NC(=O)[C@H](CCCCN)NC(=O)[C@H](CC(C)C)NC(=O)[C@H](CC(N)=O)NC(=O)[C@@H](N)CC(C)C)C(=O)N[C@@H](CC(C)C)C(=O)N[C@@H](C)C(=O)N[C@H](C(=O)N[C@@H](C)C(=O)N[C@@H](CCCCN)C(=O)N[C@@H](CCCCN)C(N)=O)C(C)C` [LNLKALLAVAKK], for which the MIC in assay [10] is over 128 µM; in assay [8], at least 128 µM; in assay [13], over 128 µM; in [9] it was over 128 µM; in [11], over 128 µM.
Take `CC(C)C[C@H](NC(=O)[C@H](CCCN=C(N)N)NC(=O)[C@@H](N)CC(C)C)C(=O)N[C@@H](CCCN=C(N)N)C(N)=O` [LRLR]: in [3], the MIC was at least 100 µM.
The compound `NC(=O)[C@H](CCCN=C(N)N)NC(=O)[C@H](CCCN=C(N)N)NC(=O)[C@H](CCCN=C(N)N)NC(=O)[C@@H](N)CCCN=C(N)N` [RRRR] yielded an MIC in assay [3] of at least 100 µM.
For `CC[C@H](C)[C@H](NC(=O)[C@H](CCCN=C(N)N)NC(=O)[C@H](CCCN=C(N)N)NC(=O)[C@@H]1CCCN1C(=O)[C@@H]1CCCN1C(=O)[C@H](CCCN=C(N)N)NC(=O)[C@H](CCCN=C(N)N)NC(=O)[C@H](CCCN=C(N)N)NC(=O)[C@@H]1CCCN1C(=O)[C@H](CC(C)C)NC(=O)[C@H](Cc1ccc(O)cc1)NC(=O)[C@@H]1CCCN1C(=O)[C@H](CCCCN)NC(=O)[C@H](CCCCN)NC(=O)[C@H](CC(=O)O)NC(=O)[C@@H](N)C(C)C)C(=O)N[C@@H](Cc1ccc(O)cc1)C(=O)N[C@@H](CC(N)=O)C(=O)N[C@@H](CCCN=C(N)N)C(N)=O` [VDKKPYLPRRRPPRRIYNR], the MIC in the assay with Escherichia coli JW0013 is 0.685 µM (≈ 1.7 µg/mL).
In the assay with Escherichia coli JW0013, `CC[C@H](C)[C@H](NC(=O)[C@H](CCCN=C(N)N)NC(=O)[C@H](CCCN=C(N)N)NC(=O)[C@@H]1CCCN1C(=O)[C@@H]1CCCN1C(=O)[C@H](CCCN=C(N)N)NC(=O)[C@@H]1CCCN1C(=O)[C@H](CCCN=C(N)N)NC(=O)[C@@H]1CCCN1C(=O)[C@H](CC(C)C)NC(=O)[C@H](Cc1c[nH]c2ccccc12)NC(=O)[C@@H]1CCCN1C(=O)[C@@H]1CCCN1C(=O)[C@H](CCCCN)NC(=O)[C@H](CC(=O)O)NC(=O)[C@@H](N)C(C)C)C(=O)N[C@@H](Cc1ccc(O)cc1)C(=O)N[C@@H](CC(N)=O)C(=O)N[C@@H](CCCN=C(N)N)C(N)=O` [VDKPPWLPRPRPPRRIYNR] showed an MIC of 1.99 µM (≈ 4.8 µg/mL).
